The subject of one test is atherosclerosis. As to conditions: immunization with peptide or peptide combination; WO 02/080954 Table B; cited from earlier work.
The subject of test [1] is IFN-γ expression of dendritic cells (DCs). Kind of test: Flow cytometric analysis of intracellular IFN-γ expression of dendritic cells (AngII model). In kind it is in vivo, mice. The settings on record: ± SEM of CD11c-gated cells. Background: Flow cytometry measures light scatter and fluorescence of single cells or particles in a stream.
A further test deals with bone marrow derived DCs. Kind of test: Cytolytic activity of CD8(+) T-cells from immunized mice against dendritic cells in vitro. Type of test: cell-based. As to the method:
(§1) The method for generating BMDC with GM-CSF was adapted from previous publication with modification see reference (19). Briefly, bone marrow cells from femurs and tibiae of male apoE−/− mice were plated into 10 cm culture plates (Falcon) with 20 ml complete RPMI-1640 containing 10 ng/ml GM-CSF (R&D Systems) and 10 ng/ml IL-4 (Invitrogen). Cells were washed and fed on day 3 and day 5 by removing the old medium followed by replenishing with fresh culture medium with GM-CSF and IL-4. On day 8, the immature DC appeared as non-adherent cells under the microscope and harvested by vigorous pipetting and subcultured into new culture plates with 2×10^5 DCs in 1.5 ml medium.
CD8(+) T-cells were negatively isolated using a CD8 selection Dynabeads kit (Invitrogen) per manufacturer's protocol. […] After co-culture for 4 hours, cells were collected and processed for flow cytometric determination of CD11c and 7-AAD by LSR II flow cytometer (BD Biosciences) and data was analyzed with Summit V4.3 software. Dendritic cell death without CD8(+) T-cells in the co-culture was used as baseline and percentage of specific lysis of cells was calculated using a method described previously, see reference (20). […]
Applicants therefore assessed the effect of the vaccine on cytotoxic activity of CD8^+ T cells against syngeneic bone marrow-derived DCs. […]

The subject of test [2] is Male apoE KO mice. As to the kind of experiment: AngII-induced aortic aneurysm formation, rupture and survival after immunization.
Experimental: Fourteen P210, 17 cBSA, 16 PBS, and 8 Saline injected mice were examined.
AngII (1000 ng/Kg/min) was delivered by a subcutaneous osmotic pump implanted at 10 weeks of age for 4 weeks to cause aneurysms in all three groups. Saline was delivered to the control group. Mice were sacrificed at 14 weeks of age of age. The mice were fed normal chow for the duration of experiment.
42 P210, 46 cBSA, 37 PBS, and 8 Saline injected mice were examined.
AngII (1000 ng/Kg/min) was delivered by a subcutaneous osmotic pump implanted at 10 weeks of age for 4 weeks to cause aneurysms in all three groups. Saline was delivered to the control group. Mice were sacrificed at 14 weeks of age of age. The male apoE KO mice were fed normal chow for the duration of experiment.
AngII (1000 ng/Kg/min) was delivered by a subcutaneous osmotic pump implanted at 10 weeks of age for 4 weeks to cause aneurysms in all three groups. Saline was delivered to the control group. Mice were sacrificed at 14 weeks of age of age. 42 P210, 46 cBSA, 37 PBS, and 8 Saline injected mice were examined. Mice were sacrificed at 14 weeks of age. The male apoE KO mice were fed normal chow for the duration of experiment.
At 10 weeks of age, mice were subcutaneously implanted with an osmotic pump which released AngII (1 mg/Kg/min), and were euthanized 4 weeks later.
The subject of test [3] is Male apoE KO mice. Kind of test: Blood pressure and heart rate in AngII-infused immunized mice. In kind it is in vivo. As to the method: Saline was delivered to the control group.
Angiotensin II infusion via implanted osmotic pump was started at 10 weeks of age. Mice were euthanized at 14 weeks of age. Blood pressure was measured throughout the duration of experiment.

The next test has as its system AT1 receptor (AT1R). Kind of test: Aortic AT1 receptor expression by Western blot (AngII model). In kind it is in vivo, mice. The settings on record: ± SEM; N = 6. In general terms: Immunoblotting shows a protein as a band on a membrane.
The test system of test [4] is naïve male apoE (−/−) recipient mice. As to the kind of experiment: Adoptive transfer of lymphocytes from immunized donors, aortic atherosclerosis in recipients. Type of test: in vivo. The settings on record: 2×10^7 donor B-cells/mouse. The text has this: Male apoE (−/−) mice on regular chow received subcutaneous immunization as described in previous paragraph and were sacrificed at 13 weeks of age as donors. Splenocytes from the same treatment group were pooled before cell isolation. Donor CD8(+) T-cells, CD4(+)CD25(+) T-cells or B-cells were isolated using Dynabeads FlowComp (Invitrogen) according to the manufacturer's protocols. CD4(+) T-cells were negatively selected from the splenocytes followed by positive selection of CD4(+)CD25(+) cells. B cells were negatively isolated whereas CD8(+) T-cells were positively isolated first and released from beads. The purity of pooled CD8(+) T-cells, CD4(+)CD25(+) T-cells and B-cells was 90%, 80% and 70%, respectively. The isolated CD8(+) T-cells (1×10^6 cells/mouse), CD4(+)CD25(+) T-cells (1×10^5 or 3×10^5 cells/mouse) or B-cells (2×10^7 cells/mouse) were then adoptively transferred to naïve male apoE (−/−) recipient mice at 6-7 weeks of age via tail vein injection. In the published literatures of vascular biology, the number of adoptively transferred lymphocytes varied greatly. For B-cells transfer, the number of 2×10^7 cells/mouse was chosen based on two prior reports, see references (11),(12). For CD4(+)CD25(+) T-cells transfer, the number of cells transferred ranged from 5×10^4 cells/mouse to 1×10^6 cells/mouse in the published literature see references (13),(14),(15). […]

In a further test the test system is BMDCs. As to the kind of experiment: Endocytosis of FITC-labeled p210 by DCs in vitro. Type of test: cell-based, mice. The settings on record: p210 labeled with FITC; FITC fluorescence in BMDCs. The procedure:
as §1
Peptide loading on BMDCs was defined using p210 labeled with FITC (FITC conjugating kit from Pierce).

The subject of the next test is KLH. Kind of test: KLH immunization after p210 immunization, KLH IgG titer. Type of test: in vivo, Male C57/BL6 mice. As to conditions: prior p210 immunization vs PBS or cBSA/alum; 100 μg KLH s.c. at 13 and 15 weeks. The text has this: (§2) The coating concentration was optimized in pilot experiments.
For another test, the system named is TNP. As to the kind of experiment: TNP-LPS immunization after p210 immunization, TNP IgG titer. In kind it is in vivo, Male C57/BL6 mice. As to conditions: prior p210 immunization vs PBS or cBSA/alum; 100 μg TNP-LPS i.p.
Excerpt: as §2

For another test, the system named is Granzyme B. Kind of test: Granzyme B level in CD8(+) T-cells from immunized mice. Type of test: cell-based. As to conditions: compared to PBS or cBSA/alum group. As to the method: (§3) Flow cytometric analysis was performed using standard protocols with antibodies listed in Table 1 below and a FACScan (Becton Dickinson) or a CyAn ADP analyzer (Beckman Coulter). For intracellular cytokine staining, Brefeldin A (3 μg/ml) was added to the cultured cells for 2 hours before cells subject to staining procedure. Cell membranes were permeabilized for staining intracellular molecules.

The next test concerns Male apoE (−/−) mice. As to the kind of experiment: p210 immunization, aortic atherosclerosis (en face Oil Red O; aortic sinus immunohistochemistry). Type of test: in vivo. The source says:
Selection of peptides and their preparation for immunization The establishment and screening of human apoB-100 peptides has been reported (8). Based on Applicants pilot experiments and prior reports, see references (9),(10) Applicants selected peptide 210 (p210, KTTKQ SFDLS VKAQY KKNKH—SEQ ID NO: 210) as a candidate immunogen. Native p210 peptide (Euro-Diagnostica AB, Sweden) was conjugated to cationic bovine serum albumin (cBSA) as carrier using a method described previously see references (3), (4) Alum was used as adjuvant and mixed with peptide/cBSA conjugate with 1:1 ratio in volume. Peptide conjugation and mixing with alum were prepared fresh prior to each immunization.
Male apoE (−/−) mice (Jackson Laboratories) were housed in an animal facility accredited by the American Association of Accreditation of Laboratory Animal Care and kept on a 12-hour day/night cycle with unrestricted access to water and food. The Institutional Animal Care and Use Committee of Cedars-Sinai Medical Center approved the experimental protocols. […] Mice, maintained on normal chow diet, received subcutaneous primary immunization in the dorsal area between scapulas at 6-7 weeks of age, followed by a booster at 9 and 12 weeks of age. One week after last booster, diet was switched to high cholesterol chow (TD 88137, Harlan-Teklad) and continued until euthanasia at the age of 25 weeks. Separate groups of mice receiving PBS or cBSA/alum at the same immunization time-points served as control. Some mice were sacrificed at 8 or 13 weeks of age to assess immune response against p210.
At euthanasia the hearts were harvested and embedded in OCT compound (Tissue-Tek) for cryo-section. Whole aortas were cleaned, processed and stained with Oil Red 0 to assess the extent of atherosclerosis en face with computer-assisted histomorphometry, see references (3),(4).
The sections from aortic sinus were stained with MOMA-2 (Serotec), or CD11c (eBioscience) antibody to identify macrophages or dendritic cells immunohistochemically using standard protocol. Oil-Red-O stain for plaque size was done using standard protocol. […]

The next test deals with Perforin. Kind of test: Perforin level in CD8(+) T-cells from immunized mice. In kind it is cell-based. The settings on record: compared to PBS or cBSA/alum group. As to the method: as §3
For another test, the system named is superoxide. Kind of test: Aortic superoxide production by in situ dihydroethidine method (AngII model). In kind it is in vivo, mice. As to conditions: ± SEM; N = 9.
Another test deals with CD11c(+) dendritic cells. Kind of test: Flow cytometric analysis of dendritic cells at immunization site and lymph nodes. The settings on record: 1 week after the third immunization; compared with cBSA/alum group. Type of test: in vivo, mice. As to the method: as §3
Since DCs are the major cell type upstream to both cellular and humoral immune responses, Applicants determined if these cells were affected by the immunization strategy. […]

The test system of a further test is CD8^+ CD25^− T cells. Kind of test: Presentation of p210 by DCs to CD8+ CD25− T cells in vitro. As to conditions: 48 hours; DCs loaded with p210 and treated with LPS; compared to untreated or LPS only. Type of test: cell-based, mice. The source says:
The p210 peptide contains the proteoglycan binding site of the apoB-100 molecule. This peptide is a cell-penetrating peptide capable of efficiently delivering antigens for cross-presentation to cytotoxic CD8^+ T cells.^53 Applicants therefore assessed activation of CD8^+ CD25^− T cells co-cultured with DCs loaded with p210 and matured with LPS.

The mark [5] stands for this setting: AngII pump 4 weeks, total 14 p210, 17 cBSA.
Setting [6] is: 100 μg s.c., three immunizations, high cholesterol chow, euthanasia at 25 weeks.

As to “HTFLI YITEL LKKLQ STTVM (HTFLIYITELLKKLQSTTVM) [p301]”, the “percentage reduction (atherosclerosis)” value with atherosclerosis is 55.2%.
Regarding “EEEML ENVSL VCPKD ATRFK (EEEMLENVSLVCPKDATRFK) [p1]”, the “percentage reduction (atherosclerosis)” value in the test with atherosclerosis is reported as 31%.
For the substance “IEIGL EGKGF EPTLE ALFGK (IEIGLEGKGFEPTLEALFGK) [p45]”, the “percentage reduction (atherosclerosis)” value in the test on atherosclerosis is given as 47.4%.
As to “KTTKQ SFDLS VKAQY KKNKH (KTTKQSFDLSVKAQYKKNKH) [p210]”, in [1] (N = 6), the “LN CD11c+CD86+IFN-γ+ DCs” value was found to be 26.7 ± 1.6 percentage. The “Spleen CD11c+CD86+IFN-γ+ DCs” value in [1] (N = 8) is given as 19.5 ± 1.6 percentage. Also, in the test on bone marrow derived DCs (CD8:DC 3:1, 4 hours, 10% FBS, CD11c-gated cells, N = 11), the “percent lysis relative to basal lysis, Normal medium” value is “significantly increased the percentage of DC death”. For the same substance, the “cytolytic activity of CD8+ T cells after depletion of CD25+ cells” value in the test on bone marrow derived DCs (FIG. 15, panel B) is listed as “abrogated the increased cytolytic activity”. In addition, the “Aneurysmal segment/total segment (%)” value in the test on Male apoE KO mice [2] (8 aortic segments, AngII pump) amounted to 14.3%. Besides, the “Survival at 28 days” value in the test with Male apoE KO mice [2] (28 days after osmotic pump implantation for Ang II infusion, 42 P210, 46 cBSA mice) is on record as 90.5%. In addition, the Aneurysm incidence in the test on Male apoE KO mice [2] (Ang II pump, 42 P210, 46 cBSA mice) is reported as 54.8%. In the test with Male apoE KO mice [2] (setting [5]), the “Aneurysm (include Rupture) (number of mice)” value came to 8; the “Rupture (number of mice)” value came out at 1; the “Rupture incidence (%, total)” value is on record as 7.1%; the “alive (number of mice)” value amounted to 13. Also, the “percentage reduction (atherosclerosis)” value in the test with atherosclerosis was 57.9%. In addition, the “reduction in blood pressure” value in the test on Male apoE KO mice [3] (4 weeks after pump implantation (FIG. 11)) was around 11%. Also, the “change in heart rate” value in the test on Male apoE KO mice [3] (4 weeks after pump implantation (FIG. 12A)) was around 7%. For the same substance, the “Mean Arterial Blood Pressure (BP)” value in the test on Male apoE KO mice [3] (± SEM at 13 weeks of age, p210 N = 9, cBSA N = 7) was 124 ± 4 mmHg. In the test on AT1 receptor (AT1R), the “Aortic AT1R” value is given as 1.0 ± 0.2 arbitrary densitometric unit. In addition, the “atherosclerosis in recipients of B cells” value in test [4] was “did not affect atherosclerosis”. Also, the “uptake of FITC-labeled p210 by dendritic cells” value in the test on BMDCs was “uptake of p210 by dendritic cells”. The KLH-IgG titer result in the test with KLH is on record as “no difference”. Also, the TNP-IgG titer result in the test with TNP was “no difference”. In addition, in the test with Granzyme B, the “Granzyme B level in CD8(+) T-cells” value is recorded as “higher level of Granzyme B”. For the same substance, in the test with Male apoE (−/−) mice (setting [6]), the “reduction of aortic atherosclerosis compared to PBS group” value came out at 57% and the “reduction of aortic atherosclerosis compared to cBSA/Alum group” value is listed as 50%. Besides, in the test with Male apoE (−/−) mice (pilot experiment, 100 μg dose compared to 25 or 50 μg dose), the “athero-reduction, dose comparison” value is reported as “optimum athero-reduction”. Also, the “perforin level in CD8(+) T-cells” value in the test with Perforin is on record as “no difference in perforin level”. In the test on superoxide, the Aortic superoxide production is 1.1 ± 0.1 arbitrary fluorescent intensity unit. In the test with CD11c(+) dendritic cells, the “CD11c(+)CD86(+) cells in lymph nodes” value is given as “reduced CD11c(+)CD86(+) cells in lymph nodes”. The “CD8+ CD25+ T cells after co-culture with p210-loaded DCs” value in the test on CD8^+ CD25^− T cells was “significantly increased CD8^+ CD25^+ T cells”.

The values above are taken from patent US20130302362A1, “Immunomodulatory Compositions, Methods and Systems Comprising Immunogenic Fragments of ApoB-100” (CEDARS-SINAI MEDICAL CENTER, priority 2010, published 2013).
